According to PubChem BioAssay AID1845198 (Molecular Pharmacology Branch, DTP, NCI, 2023):
pIC50: −log10 of the molar value. Several values for one entry are separate records, joined by “and”; a condition that tells them apart may be missing. Identical values can stand only once.

Tested on: 425362-245-T-J1 tumor spheroids, viability % test/control
Experiment: Anticancer human tumor 425362-245-T-J1 patient-derived melanoma cell line growth inhibition
Details: spheroids with HUVEC and MSC; for viability, T/C: stronger effect = lower value
Source text: Multicellular complex tumor spheroid response to DNA repair inhibitors in combination with DNA-damaging drugs
This study explores the anticancer activities of DNA-damaging drugs and inhibitors of DNA damage repair, both as single agents and in combinations. Complex tumor spheroids comprised of malignant cells, endothelial cells and mesenchymal stem cells served as an in vitro model for human solid tumors. This model system incorporates physiologically relevant features and patient-derived or established malignant cell lines with clinically relevant genetic alterations from many tumor types. Twenty-six patient-derived or established malignant cell lines were evaluated representing sarcoma, melanoma, small cell lung cancer (SCLC), non-small cell lung cancer (NSCLC), as well as bladder, ovarian and pancreatic cancers. The concentration ranges selected for each drug and investigational agent were based upon clinically achievable concentrations if the clinical Cmax of the agent was known.
Compounds. The drugs and compounds olaparib (NSC753686), talazoparib (NSC767125), berzosertib (NSC777718), elimusertib (NSC800525), nedisertib (NSC802822), VX-984 (NSC792969), AZD-1390 (NSC803789), temozolomide (NSC362856), topotecan (NSC609699), trabectedin (NSC813783), staurosporine (NSC755774), and gemcitabine (NSC613327) were obtained from the National Cancer Institute (NCI) Developmental Therapeutics Program Chemical Repository. The FDA-approved anticancer drug set is available from the Developmental Therapeutics Program at https://dtp.cancer.gov/organization/dscb/obtaining/available_plates.htm. […] The stock solutions were prepared in dimethyl sulfoxide (DMSO, Sigma-Aldrich, St. Louis, MO, cat. D2650) at 400-fold the tested concentration and stored at -70 degrees C. Prior to their use, the stock solutions were diluted in fresh medium and the final DMSO concentration in the assay was 0.25% (v/v). All drugs and investigational agents were tested over a range starting from a high concentration at or near the clinical Cmax and decreasing in half-log increments. If the clinical Cmax for an agent had not been determined, the highest concentration tested was 10 microM.
Cell Lines. The patient-derived cancer cell (PDC) lines: 156681-154-R-J1-PDC, 283228-195-R-J1-PDC, 287954-098-R-J1-PDC, 292921-168-R-J2-PDC, 349418-098-R-PDC, 425362-245-T-J1-PDC, 556581-035-R-J1-PDC, and BL0293-F563-PDC were received from the NCI Patient-Derived Models Repository (PDMR, https://pdmr.cancer.gov). The established cell lines HS-SY-2 (RRID:CVCL_8719), MPNST, and SYO-1 (RRID:CVCL_7146) were obtained from the Sloan Kettering Institute. The alveolar soft parts sarcoma cell line ASPS-1 (RRID:CVCL_S738) was established at the NCI and grown from internal seed stocks. The following established cell lines were purchased from the American Type Culture Collection (ATCC, Manassas, VA): G-401 (ATCC, cat. CRL-1441, RRID:CVCL_0270), SW982 (ATCC, cat. HTB-93, RRID:CVCL_1734), VA-ES-BJ (ATCC, cat. CRL-2138, RRID:CVCL_1785), NCI-H719 (ATCC, cat. CRL-5837, RRID:CVCL_1582), NCI-H196 (ATCC, cat. CRL-5823, RRID:CVCL_1509), NCI-H841 (ATCC, cat. CRL-5845, RRID:CVCL_1595), NCI-H1618 (ATCC, cat. CRL-5879, RRID:CVCL_1480), NCI-H1876 (ATCC, cat. CRL-5902, RRID:CVCL_1503), DMS 114 (ATCC, cat. CRL-2066; RRID:CVCL_1174), NCI-H211 (ATCC, cat. CRL-5824; RRID:CVCL_1529), and SW 1271 (ATCC, cat. CRL-2177, RRID:CVCL_1716). The small cell lung cancer cell line COR-L88 was purchased from Sigma-Aldrich (cat. 92031917-1VL, RRID:CVCL_1141). The non-small cell lung cancer cell lines NCI-H226 (RRID:CVCL_1544) and NCI-H322M (RRID:CVCL_1557) were established at the NCI and grown from internal seed stocks. Pooled donor human umbilical vein endothelial cells (HUVEC, Lonza, cat. CC-2519) and human mesenchymal stem cells (hMSC, Lonza, cat. PT-2501) were purchased from Lonza (Walkersville, MD).
Cell Culture. All cells were maintained in an incubator at 37 degrees C and 5% CO2 with 95% humidity. […]

[1] = compound alone, run of 10/17/2019
[2] = compound alone, run of 10/25/2019
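Further: spheroids exposed to agents for 7 days.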
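Wherever viability, T/C is given: 100% = DMSO vehicle control viability.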

SMILES	viability, T/C (compound 0.0316 µM)	viability, T/C (compound 0.1 µM)	viability, T/C (compound 0.316 µM)	viability, T/C (compound 1 µM)	viability, T/C (compound 3.16 µM)	viability, T/C (compound 10 µM)	pIC50 (curve of compound)	viability, T/C (compound 0.00949 µM)	viability, T/C (compound 0.03 µM)	viability, T/C (compound 0.0949 µM)	viability, T/C (compound 0.3 µM)	viability, T/C (compound 0.949 µM)	viability, T/C (compound 3 µM)	other results
CC(C)n1c(=O)n(C)c2cnc3cc(F)c(-c4ccc(OCCCN5CCCCC5)nc4)cc3c21	56.5% and 67.4% and 67.2%	43.4% and 60.3% and 69.2%	44.1% and 39.9% and 36.1%	27.5% and 20.1% and 23.2%	17.4% and 14.7% and 14.3%	7.66% and 5.49% and 5.26%	7.14 and 6.76 and 6.70							
CC1COCCN1c1cc(-c2ccnn2C)c2ccnc(-c3ccn[nH]3)c2n1 (stereo unspecified)	34.4% and 43.6% and 45.5%	13.7% and 12.7% and 17.3%	7.51% and 9.92% and 13.6%	6.44% and 8.46% and 7.34%	6.81% and 10.8% and 7.05%	8.79% and 9.71% and 7.27%	> 7.50							
CC[C@@]1(O)C(=O)OCc2c1cc1n(c2=O)Cc2cc3c(CN(C)C)c(O)ccc3nc2-1								89.3% [middle of 10 runs]	38.3% [middle of 10 runs]	6.41% [middle of 10 runs]	1.78% [middle of 10 runs]			IC50 [1]: 21.5 nM [middle of 5 runs]; IC50 [2]: 23.4 nM [middle of 4 runs]
CNCc1ccc(-c2cc(-c3nc(-c4ccc(S(=O)(=O)C(C)C)cc4)cnc3N)on2)cc1							7.08 and 7.10 and 6.82	93.8% and 103% and 111%	103% and 83.1% and 105%	44.3% and 46.4% and 79.6%	8.53% and 6.26% and 5.89%	3.67% and 5.06% and 2.41%	0.18% and 0.4% and 0.23%	
COc1cc(C)[nH]c(=O)c1CN1CCc2c(Cl)cc(C(OC)C3COC3)c(Cl)c2C1=O (stereo unspecified)	107% and 103% and 97%	103% (2×) and 108%	106% and 97.8% and 99.9%	95.9% and 103% and 98.4%	97.4% and 104% and 96.1%	89.9% and 92.6% and 88.8%	< 5.00							
COc1cc2c(cc1O)CCNC21CSC2c3c(OC(C)=O)c(C)c4c(c3C(COC1=O)N1C(O)C3Cc5cc(C)c(OC)c(O)c5C(C21)N3C)OCO4 (stereo unspecified)														viability, T/C (compound 30 pM): 98% [middle of 10 runs]; viability, T/C (compound 94.9 pM): 95.6% [middle of 10 runs]; viability, T/C (compound 0.0003 µM): 40.8% [middle of 10 runs]; viability, T/C (compound 0.000949 µM): 0.32% [middle of 9 runs]; viability, T/C (compound 0.003 µM): 0.21% [middle of 9 runs]; IC50 [2]: 0.243 nM [middle of 9 runs]
COc1ccc([C@@H](O)c2cc(-c3ncnc4cc(N5CCOCC5)ccc34)c(F)cc2Cl)nn1	101% and 96.8% and 105%	92.6% and 110% and 104%	90.7% and 98.8% and 92.3%	65.5% and 76.1% and 72.6%	38% and 44.5% and 42.9%	18.8% and 22.8% and 19.7%	5.71 and 5.60 and 5.62							
Cc1cc(C)c(CNC(=O)c2cc(-c3ccc(CN4CCOCC4)cc3)cc3c2cnn3C2CCCC2)c(=O)[nH]1	101% and 97.2% and 92.7%	93% and 116% and 102%	103% and 97.9% and 84.5%	100% and 80.2% and 86.5%	81.8% and 49.8% and 46.3%	42.6% and 15.2% and 14.8%	5.09 and 5.52 and 5.54							
Cc1sc2c(c1C)C(c1ccc(Cl)cc1)=NC(CC(=O)Nc1ccc(O)cc1)c1nnc(C)n1-2 (stereo unspecified)							7.02 and 7.07 and 7.10	97.8% and 84.1% and 108%	91.2% and 76% and 93%	49.5% and 47.9% and 42.8%	12.8% and 12% and 8.15%	5.36% and 3.14% and 2.44%	2.57% and 1.92% and 2.11%	
Cn1ncnc1[C@H]1c2n[nH]c(=O)c3cc(F)cc(c23)N[C@@H]1c1ccc(F)cc1							7.54 and 7.66 and 7.85	74.9% and 69% and 59.1%	46.1% and 42.9% and 33.5%	35.3% and 25.2% and 18.1%	16.1% and 14.1% and 15.6%	10.1% and 9.44% and 9.39%	3.22% and 2.7% and 1.7%	
Cn1nnc2c(C(N)=O)ncn2c1=O					106% [middle of 10 runs]									viability, T/C (compound 31.6 µM): 108% [middle of 10 runs]; viability, T/C (compound 100 µM): 92.1% [middle of 10 runs]; pIC50 [1]: < 4.00
O=C(c1cc(Cc2n[nH]c(=O)c3ccccc23)ccc1F)N1CCN(C(=O)C2CC2)CC1							5.67 and 5.42 and 5.60			92.6% and 110% and 97.2%	82.7% and 97.3% and 92.5%	73.7% and 88.9% and 75.7%	41.4% and 60.6% and 45.6%	viability, T/C (compound 9.49 µM): 12% and 18.8% and 18.9%; viability, T/C (compound 30 µM): 7.13% and 11.4% and 9.39%
[2H]c1nc(C)nc([2H])c1-c1cc(NC[C@@H](C)c2cccc3c(C(=O)NC)ccnc23)ncn1	103% and 96.9% and 88.3%	97.1% and 90.8% and 81.5%	112% and 98.8% and 69.9%	108% and 104% and 63.5%	110% and 96.8% and 52.8%	103% and 96.5% and 25.2%	< 5.00 and 5.55							
